# From US20080050448A1, “ANTIMICROBIAL CONJUGATES” (priority 2006, published 2008)
# Assays:
# [1] = test system: Staphylococcus aureus NCTC 6571; experiment: Lethal photosensitisation of S. aureus by TBO-tiopronin-gold nanoparticle conjugate, white light (and dark controls), viable counting; assay type: cell-based
# [2] = test system: Staphylococcus aureus NCTC 6571; experiment: Lethal photosensitisation of S. aureus by gold nanoparticle-photosensitiser mixtures, white light, viable counting; assay type: cell-based
# Procedure: Gold nanoparticles (2.0 nm diameter; British Biocell International) in water (15×10^13 particles per ml) were mixed with an equal volume of an aqueous solution of toluidine blue O (40 μM) and left at room temperature for 15 minutes. 100 μl of the gold-TB solution was added to 100 μl of a suspension of Staphylococcus aureus NCTC 6571 in phosphate buffered saline (PBS) and this was irradiated with white light from a fluorescent white lamp for 10 minutes. Controls consisted of:
# (i) TB (final concentration=10 μM) and bacteria, irradiated for the same period of time,
# (ii) nanogold (diluted 1:1 with water) and bacteria, irradiated for the same period of time,
# (iii) bacteria without TB or nanogold, not irradiated (“control”).
# After irradiation, the number of surviving bacteria was determined by viable counting. […] Note that the TB concentration and light energy dose used were designed to give sub-optimal kills so that differences in efficacy of the TB and the TB-nanogold could be discerned. Preliminary experiments using 30 minutes light exposure achieved total kills of the bacterial suspensions in both cases.
# Gold nanoparticles of approximately 15 nm in diameter (batches NN1 and NN2 above) were mixed with an equal volume of aqueous toluidine blue O (TB) and left at room temperature for 15 minutes. TB was used at a final concentration of 1, 5, 10, 20 or 50 μM. 100 μl of the TB-gold mixture was added to 100 μl of a suspension of Staphylococcus aureus NCTC 6571 in phosphate buffered saline (PBS) (adjusted to an optical density of 0.05), and samples were irradiated with a fluorescent white light (28 W) for 10 minutes. S. aureus+TB only, and S. aureus+PBS, without photosensitiser or nanogold were used as controls. The final concentration of nanogold used was 1×10^15 particles/ml. After irradiation, the numbers of surviving bacteria were enumerated by viable counting.
# The method of Example 2 was repeated using gold nanoparticles of 2 nm diameter (British Biocell International). The final concentration of nanogold used was 4×10^13 particles/ml. […]
structure (smiles),measurement,setting,value
"Cc1cc2nc3ccc(N(C)C)cc3[s+]c2cc1N.[Cl-] [TB only, toluidine blue O]",effect on S. aureus,"[1]; irradiated with white light for any length of time (15, 30, 45 minutes)",no effect
same,concentration at which significant kills of the organism were exhibited (only at this concentration),[1]; white light 30 mins,2.0 μm
same,% Kill,"[2]; 10 min 28 W fluorescent white lamp, 2.0 nm gold, TB final 10 μM",93.7%
same,kill of the bacterial suspension,"[2]; preliminary experiments, 30 minutes light exposure",total kills
same,S. aureus (cfu/ml),"[2]; surviving bacteria after 10 min 28 W fluorescent white lamp, 2.0 nm gold, TB final 10 μM",8570000 cfu/ml
